Test results: paper PMC7459655 (Biomedicines, 2020)
“And” between values parts separate entries of the source, which are not always exact repeats. Identical values can stand only once.

Key:
[1] = tested on: P. falciparum CQ-sensitive strain 3D7
[2] = tested on: P. falciparum CQ-sensitive strain 3D7; assay: microbe, parasite or virus in culture; details: Plasmodium falciparum, 3D7, 72 h
[3] = tested on: non-infected erythrocytes
in vitro = details: human
[4] = tested on: P. falciparum CQ-resistant strain Dd2; assay: microbe, parasite or virus in culture; details: Plasmodium falciparum, DD2, 72 h
[5] = tested on: P. falciparum CQ-resistant strain Dd2
[6] = tested on: leukemia cell line Nalm-6
[7] = tested on: P. falciparum gametocyte-producing strain NF54 gametocytes; assay type: cell-based, Plasmodium falciparum
[8] = tested on: P. falciparum mature gametocytes (male gametogenesis); assay type: cell-based, Plasmodium falciparum

Compound: O[As]12(OC(C(F)(F)F)(C(F)(F)F)c3ccccc31)OC(C(F)(F)F)(C(F)(F)F)c1ccccc12 [As-5]
- antiplasmodial activity against 3D7 (in words) [1]: higher micromolar ranges
- IC50 [2]: 16.6 ± 3.09 µM
- IC90 [2]: 149 µM

Compound: Cc1ccc2ccccc2c1[As](=O)(O)c1c(C)ccc2ccccc12 [As-8]
- SI (ratio of CC50 and IC50) [1]: >66
- antiplasmodial activity against 3D7 (in words) [1]: lower micromolar ranges
- hemolytic effect on erythrocytes (in words) [3]: no hemolytic effect
- CC50 (in vitro): > 100 µM
- IC50 [4]: 0.35 ± 0.099 µM
- IC90 [4]: 3.15 µM
- IC50 [2]: 1.52 ± 0.089 µM
- IC90 [2]: 13.7 µM
- SI (ratio of CC50 and IC50) [5]: >286
- antiplasmodial activity against Dd2 compared to 3D7 (in words) [5]: increased activities
- cytotoxic effect, LDH release (in words) [6]: No noticeable cytotoxic effect
- reduction of gametocyte development (stage IV and V gametocytes) [7]: about 60%
- reduction in exflagellation (numbers of exflagellation centers) [8]: 67% and 87%

Compound: CCCCCCCCCCCC[As](=O)(CCCCCCCCCCCC)CCCCCCCCCCCC [As-11]
- antiplasmodial activity against 3D7 (in words) [1]: higher micromolar ranges
- IC50 [2]: 43 ± 5.7 µM

Compound: c1ccc(-c2ccccc2[As]23(OCCO2)OCCO3)cc1 [As-4]
- SI (ratio of CC50 and IC50) [1]: >12
- antiplasmodial activity against 3D7 (in words) [1]: lower micromolar ranges
- hemolytic effect on erythrocytes (in words) [3]: no hemolytic effect
- CC50 (in vitro): > 100 µM
- IC50 [4]: 30.1 ± 2.07 µM
- IC50 [2]: 8.64 ± 0.963 µM
- IC90 [2]: 77.8 µM
- SI (ratio of CC50 and IC50) [5]: >3
- antiplasmodial activity against Dd2 compared to 3D7 (in words) [5]: reduced antiplasmodial activities

Compound: CC(C)[C@H]1COC(c2ccccc2[As](c2ccccc2)c2ccccc2)=N1 [As-10]
- antiplasmodial activity against 3D7 (in words) [1]: higher micromolar ranges
- IC50 [2]: 18.1 ± 3 µM
- IC90 [2]: 163 µM
